Key:
A98G/F227C mutant = experiment: Susceptibility of SDM derived DOR-resistant mutant to NRTIs, Example 1; format: cell-based, HIV-1; details: for EC50: Human immunodeficiency virus 1, read-out: Antiviral Potency (nM)
Source text: (§1) Common doravirine-associated mutants containing F227C substitution were derived from SDM.

V106M/F227C mutant = experiment: as above; format: cell-based, HIV-1; details: for EC50: Human immunodeficiency virus 1, read-out: Antiviral Potency
Source text: as §1

V106I/F227C/H221Y mutant = experiment: as above; format: cell-based, HIV-1; details: for EC50: Human immunodeficiency virus 1, read-out: Antiviral Potency
Source text: as §1

WT virus = experiment: Susceptibility of virus to NRTIs (antiviral potency), Example 1; format: cell-based, HIV-1; details: for EC50: Human immunodeficiency virus 1
Method: (§2) Common doravirine-associated mutants containing F227C substitution were derived from SDM. The experimental conditions for susceptibility evaluation are described in Lai, Ming-Tain, et al., In Vitro Characterization of MK-1439, a Novel HIV-1 Nonnucleoside Reverse Transcriptase Inhibitor. Antimicrobial Agents and Chemotherapy 58(3): 1652-1663, 2014. These mutants conferred more than 100-fold of resistance to DOR. The susceptibility of the mutants to EFdA and 3TC was also evaluated under the same conditions. […] In contrast, the mutants are hypersusceptible to EFdA with 2-5 fold increase in susceptibility with all mutants except the quardruple mutant.

[1] = system: A98G/V106I/H221Y/F227C mutant; experiment: Susceptibility of SDM derived DOR-resistant mutant to NRTIs, Example 1; format: cell-based, HIV-1; details: for EC50: Human immunodeficiency virus 1, read-out: Antiviral Potency
Method: as §2

F227C mutant = experiment: as above; format: cell-based, HIV-1; details: for EC50: Human immunodeficiency virus 1, read-out: Antiviral Potency
Method: as §2

V106I/F227C mutant = experiment: as above; format: cell-based, HIV-1; details: for EC50: Human immunodeficiency virus 1, read-out: Antiviral Potency
Method: as §2

[2] = system: Common doravirine-associated mutants containing F227C substitution; experiment: Susceptibility of the SDM derived doravirine-associated mutants as a group; format: cell-based, HIV-1
Method: Site-directed mutagenesis (SDMs) were generated for the substitutions V1061/F227C, V1061/H221Y/F227C, A98G/V1061/H221Y/F227C, and V106M/F227C and their susceptibility to NNRTIs was evaluated. Most of the mutants conferred a high level of resistance to DOR with a fold change (FC)>100 (FC: mutantEC50 versus WTEC50).
FIG. 1. Susceptibility of SDM derived DOR-resistant clinical mutants to NRTIs. […] In contrast, the mutants are hypersusceptible to EFdA with 2-5 fold increase in susceptibility except the quardruple mutant.
as §2

HIV = details: compared with EFddA lacking a 3′-OH; cited from earlier work
HIV-1 [3] = experiment: Proof of concept study in HIV-1 infected patients; format: in vivo, human; details: single dose as low as 0.5 mg
Method: EFdA was tested in HIV-1 infected patients for a proof of concept study.

[4] = system: clinical-NNRTI-associated mutant viruses (a total of 96 viruses); details: 96 clinical NNRTI-associated mutant viruses; cited from earlier work
wild type (WT) virus = details: 100% normal human serum (NHS), read-out: EC50 suppressing replication; cited from earlier work
K103N/Y181C mutant virus [5] = details: 100% normal human serum (NHS), read-out: EC50 suppressing replication; cited from earlier work
HIV-1 [6] = details: escalating concentrations of DOR; cited from earlier work
Y181C mutant virus [7] = details: 100% normal human serum (NHS), read-out: EC50 suppressing replication; cited from earlier work
K103N mutant virus [8] = details: 100% normal human serum (NHS), read-out: EC50 suppressing replication; cited from earlier work
[9] = system: other prevalent NNRTI-associated mutants; experiment: Inhibitory quotients against other NNRTI-associated mutants; format: cell-based, HIV-1; details: with the exception of Y188L
Method: (§3) Inhibitory quotients (IQs) were calculated by determining the ratio of the clinical trough concentration over the antiviral EC50 of various viruses. IQs have been employed to predict the potential efficacy of anti-viral agents.

K103N/Y181C mutant virus [10] = experiment: Suppression of virus replication in vitro in 100% normal human serum; inhibitory quotient; format: cell-based, HIV-1; details: ratio of clinical trough concentration over antiviral EC50
Method: (§4) In addition, the susceptibility of a broader array of clinical-NNRTI-associated mutant viruses (a total of 96 viruses) to doravirine and other benchmark NNRTIs was investigated. […] See Lai, Ming-Tain, et al., In Vitro Characterization of MK-1439, a Novel HIV-1 Nonnucleoside Reverse Transcriptase Inhibitor. Antimicrobial Agents and Chemotherapy 58(3): 1652-1663, 2014.
as §3

Y181C mutant virus [11] = experiment: as above; format: cell-based, HIV-1; details: ratio of clinical trough concentration over antiviral EC50
Method: as §4, §3

K103N mutant virus [12] = experiment: as above; format: cell-based, HIV-1; details: ratio of clinical trough concentration over antiviral EC50
Method: as §4, §3

Nc1ccn([C@@H]2CS[C@H](CO)O2)c(=O)n1 [3TC, lamivudine, reference compound]
EC50 (A98G/F227C mutant): 809 ± 146 nM
EC50 (V106M/F227C mutant): 0.771 ± 0.062 µM
EC50 (V106I/F227C/H221Y mutant): 0.758 ± 0.244 µM
Fold-change (EC50mut/WT EC50wt) (WT virus): 1.0
EC50 (WT virus): 0.601 ± 0.142 µM
Fold-change (EC50mut/WT EC50wt) [1]: 1.93
EC50 [1]: 1.16 ± 0.314 µM
Fold-change (EC50mut/WT EC50wt) (F227C mutant): 2.26
EC50 (F227C mutant): 1.36 ± 0.094 µM
Fold-change (EC50mut/WT EC50wt) (V106I/F227C mutant): 1.15
EC50 (V106I/F227C mutant): 0.692 ± 0.212 µM

C#C[C@]1(CO)O[C@@H](n2cnc3c(N)nc(F)nc32)C[C@@H]1O [EFdA, 4′-ethynyl-2-fluoro-2′-deoxyadenosine]
susceptibility / potency of mutants compared with WT virus ([2]; mutants containing F227C substitution): better potency compared to WT virus
fold increase in susceptibility (hypersusceptible) ([2]; {}): 2-5 fold
Fold-change (EC50mut/WT EC50wt) (A98G/F227C mutant; A98G/F227C): 0.18
EC50 (A98G/F227C mutant): 0.15 ± 0.026 nM
Fold-change (EC50mut/WT EC50wt) (V106M/F227C mutant): 0.37
EC50 (V106M/F227C mutant): 0.0003 ± 4.8e-05 µM
Fold-change (EC50mut/WT EC50wt) (V106I/F227C/H221Y mutant): 0.49
EC50 (V106I/F227C/H221Y mutant): 0.0004 ± 7.5e-05 µM
antiviral activity relative to EFddA (HIV): 10,000 times
Fold-change (EC50mut/WT EC50wt) (WT virus): 1.0
EC50 (WT virus): 0.00081 ± 2.9e-05 µM
Fold-change (EC50mut/WT EC50wt) [1]: 1.00
EC50 [1]: 0.00081 ± 0.000124 µM
Fold-change (EC50mut/WT EC50wt) (F227C mutant): 0.18
EC50 (F227C mutant): 0.00015 ± 2.6e-05 µM
Fold-change (EC50mut/WT EC50wt) (V106I/F227C mutant): 0.44
EC50 (V106I/F227C mutant): 0.00035 ± 4.8e-05 µM
duration of suppression of HIV replication (HIV-1 [3]): at least seven days

Cn1c(Cn2ccc(C(F)(F)F)c(Oc3cc(Cl)cc(C#N)c3)c2=O)n[nH]c1=O [Doravirine]
mutant profile versus benchmark NNRTIs [4]: superior overall to that of efavirenz (EFV) and comparable to that of etravirine (ETR) and rilpivirine (RPV)
EC50 (wild type (WT) virus): 0.012 µM
EC50 (K103N/Y181C mutant virus [5]): 0.033 µM
mutations emerging in resistance selection (HIV-1 [6]): V106A mutant led two mutation pathways, followed by the emergence of F227L and L234I substitutions
EC50 (Y181C mutant virus [7]): 0.031 µM
EC50 (K103N mutant virus [8]): 0.021 µM
IQ values compared with RPV and EFV [9]: higher IQ values than RPV and EFV
Inhibitory quotient (IQ) (K103N/Y181C mutant virus [10]): 25
Inhibitory quotient (IQ) (Y181C mutant virus [11]): 27
Inhibitory quotient (IQ) (K103N mutant virus [12]): 39

Cc1cc(/C=C/C#N)cc(C)c1Nc1ccnc(Nc2ccc(C#N)cc2)n1 [RPV, rilpivirine]
Inhibitory quotient (IQ) (K103N/Y181C mutant virus [10]): 0.8
Inhibitory quotient (IQ) (Y181C mutant virus [11]): 1.4
Inhibitory quotient (IQ) (K103N mutant virus [12]): 4.6

O=C1Nc2ccc(Cl)cc2[C@@](C#CC2CC2)(C(F)(F)F)O1 [EFV, efavirenz]
Inhibitory quotient (IQ) (K103N/Y181C mutant virus [10]): 1.9
Inhibitory quotient (IQ) (Y181C mutant virus [11]): 60
Inhibitory quotient (IQ) (K103N mutant virus [12]): 2.5
